From patent US6559101B2, “N- (5, 7-dimethoxy [1, 2, 4] triazolo [1, 5-a] pyrimidin-2-yl) arylsulfonamide compounds and their use as herbicides” (Dow AgroSciences LLC, priority 2000, dated 2003)

Assays:
Format in all cases: in vivo
[1] = system: crabgrass (Digitaria sanguinalis); test: Preemergence herbicidal activity; details: scored after 3 weeks, 0 no injury, 100 complete kill or no germination
Protocol: (§1) The soil matrix was contained in plastic pots with a surface area of 161 square centimeters. When required to ensure good germination and healthy plants, a fungicide treatment and/or other chemical or physical treatment was applied. A weighed amount, determined by the highest rate to be tested, of each test compound was placed in a 20 mL glass vial and was dissolved in 8 mL of a 97:3 v/v (volume/volume) mixture of acetone and dimethyl sulfoxide to obtain concentrated stock solutions. […] The stock solutions obtained were diluted with a 99.9:0.1 mixture of water and Tween® 155 surfactant (ethoxylated sorbitan fatty acid ester) to obtain application solutions of known concentration. The solutions containing the highest concentration to be tested were prepared by diluting 4 mL aliquots of the stock solution with 8.5 mL of the mixture and lower concentrations were prepared by dilution of appropriate smaller portions of the stock solution. A 2.5 mL aliquot of each solution of known concentration was sprayed evenly onto the soil of each seeded pot using a Cornwall 5.0 mL glass syringe fitted with a TeeJet TN-3 hollow cone nozzle to obtain thorough coverage of the soil in each pot. Control pots were sprayed in the same manner with the aqueous mixture. A highest application rate of 4.48 kg/ha is achieved when 50 mg of test compound is employed. The treated pots and control pots were placed in a greenhouse with an approximately 15 hr photoperiod which was maintained at about 23-29° C. during the day and 22-28° C. during the night. Nutrients and water were added on a regular basis and supplemental lighting was provided with overhead metal halide 1000 Watt lamps as necessary. The water was added by top-irrigation. After 3 weeks the condition of the test plants that germinated and grew as compared with that of the untreated plants that germinated and grew was determined visually and scored on a scale of 0 to 100 percent where 0 corresponds to no injury and 100 corresponds to complete kill or no germination.

[2] = system: wild poinsettia (Euphorbia heterophylla); test: Preemergence herbicidal activity; details: scored after 3 weeks, 0 no injury, 100 complete kill or no germination
Protocol: as §1

[3] = system: wild oats (Avena fatua); test: Preemergence herbicidal activity; details: scored after 3 weeks, 0 no injury, 100 complete kill or no germination
Protocol: as §1

[4] = system: blackgrass (Alopecurus myosuroides); test: Preemergence herbicidal activity; details: scored after 3 weeks, 0 no injury, 100 complete kill or no germination
Protocol: as §1

[5] = system: velvetleaf (Abutilion theophrasti); test: Preemergence herbicidal activity; details: scored after 3 weeks, 0 no injury, 100 complete kill or no germination
Protocol: as §1

[6] = system: morningglory (Ipomoea hederacea); test: Preemergence herbicidal activity; details: scored after 3 weeks, 0 no injury, 100 complete kill or no germination
Protocol: as §1

[7] = system: barnyardgrass (Echinochloa crus-galli); test: Preemergence herbicidal activity; details: scored after 3 weeks, 0 no injury, 100 complete kill or no germination
Protocol: as §1

[8] = system: pigweed (Amaranthus retroflexus); test: Preemergence herbicidal activity; details: scored after 3 weeks, 0 no injury, 100 complete kill or no germination
Protocol: as §1

[9] = system: giant foxtail (Setaria faberi); test: Preemergence herbicidal activity; details: scored after 3 weeks, 0 no injury, 100 complete kill or no germination
Protocol: as §1

[10] = system: cocklebur (Xanthium strumarium); test: Preemergence herbicidal activity; details: scored after 3 weeks, 0 no injury, 100 complete kill or no germination
Protocol: as §1

[11] = system: Rox orange sorghum (Sorghum bicolor); test: Preemergence herbicidal activity; details: scored after 3 weeks, 0 no injury, 100 complete kill or no germination
Protocol: as §1

[12] = system: lambsquarters (Chenopodium album); test: Postemergence herbicidal activity; details: scored after 2 weeks, 0 no injury, 100 complete kill
Protocol: (§2) Seeds of the desired test plant species were planted in Grace-Sierra MetroMix® 306 planting mixture, which typically has a pH of 6.0 to 6.8 and an organic matter content of about 30 percent, in plastic pots with a surface area of 64 square centimeters. When required to ensure good germination and healthy plants, a fungicide treatment and/or other chemical or physical treatment was applied. The plants were grown for 7-21 days in a greenhouse with an approximately 15 hr photoperiod which was maintained at about 23-29° C. during the day and 22-28° C. during the night. Nutrients and water were added on a regular basis and supplemental lighting was provided with overhead metal halide 1000 Watt lamps as necessary. The plants were employed for testing when they reached the first or second true leaf stage. A weighed amount of each test compound, determined by the highest rate to be tested, was placed in a 20 mL glass vial and was dissolved in 4 mL of a 97:3 v/v (volume/volume) mixture of acetone and dimethyl sulfoxide to obtain concentrated stock solutions. […] The concentrated stock solutions obtained were diluted with an aqueous mixture containing acetone, water, iso-propyl alcohol, dimethyl sulfoxide, Atplus 411F crop oil concentrate, and Triton X-155 surfactant (methylenebisdiamyl phenoxy polyethoxy ethanol) in a 48.5:39:10:1.5:1.0:0.02 v/v ratio to obtain spray solutions of known concentration. The solutions containing the highest concentration to be tested were prepared by diluting 2 mL aliquots of the stock solution with 13 mL of the mixture and lower concentrations were prepared by dilution of appropriate smaller portions of the stock solution. Approximately 1.5 mL aliquots of each solution of known concentration were sprayed evenly onto each of the test plant pots using a Devilbiss atomizer driven by compressed air pressure of 2 to 4 psi (140 to 280 kiloPascals) to obtain thorough coverage of each plant. Control plants were sprayed in the same manner with the aqueous mixture. In this test an application rate of 1 ppm results in the application of approximately 1 g/ha. The treated plants and control plants were placed in a greenhouse as described above and watered by sub-irrigation to prevent wash-off of the test compounds. After 2 weeks the condition of the test plants as compared with that of the untreated plants was determined visually and scored on a scale of 0 to 100 percent where 0 corresponds to no injury and 100 corresponds to complete kill.

[13] = system: chickweed (Stellaria media); test: Postemergence herbicidal activity; details: scored after 2 weeks, 0 no injury, 100 complete kill
Protocol: as §2

[14] = system: wild oats (Avena fatua); test: Postemergence herbicidal activity; details: scored after 2 weeks, 0 no injury, 100 complete kill
Protocol: as §2

[15] = system: wild buckwheat (Polygonum convolvulus); test: Postemergence herbicidal activity; details: scored after 2 weeks, 0 no injury, 100 complete kill
Protocol: as §2

[16] = system: blackgrass (Alopecurus myosuroides); test: Postemergence herbicidal activity; details: scored after 2 weeks, 0 no injury, 100 complete kill
Protocol: as §2

[17] = system: velvetleaf (Abutilion theophrasti); test: Postemergence herbicidal activity; details: scored after 2 weeks, 0 no injury, 100 complete kill
Protocol: as §2

[18] = system: morningglory (Ipomoea hederacea); test: Postemergence herbicidal activity; details: 62.5 ppm; scored after 2 weeks; 0 no injury, 100 complete kill
Protocol: as §2

[19] = system: pigweed (Amaranthus retroflexus); test: Postemergence herbicidal activity; details: scored after 2 weeks, 0 no injury, 100 complete kill
Protocol: as §2

[20] = system: giant foxtail (Setaria faberi); test: Postemergence herbicidal activity; details: scored after 2 weeks, 0 no injury, 100 complete kill
Protocol: as §2

[21] = system: cocklebur (Xanthium strumarium); test: Postemergence herbicidal activity; details: scored after 2 weeks, 0 no injury, 100 complete kill
Protocol: as §2

[22] = system: Rox orange sorghum (Sorghum bicolor); test: Postemergence herbicidal activity; details: scored after 2 weeks, 0 no injury, 100 complete kill
Protocol: as §2

[23] = system: viola (Viola tricolor); test: Postemergence herbicidal activity; details: scored after 2 weeks, 0 no injury, 100 complete kill
Protocol: as §2

COc1cc(OC)n2nc(NS(=O)(=O)c3cc(Cl)ccc3OC)nc2n1 [Compound 5]
Preemergence herbicidal activity DIGSA ([1]; 70 g/Ha): 99%
Preemergence herbicidal activity EPHHL ([2]; 70 g/Ha): 90%
Preemergence herbicidal activity AVEFA ([3]; 70 g/Ha): 99%
Preemergence herbicidal activity ALOMY ([4]; 70 g/Ha): 100%
Preemergence herbicidal activity ABUTH ([5]; 70 g/Ha): 95%
Preemergence herbicidal activity IPOHE ([6]; 70 g/Ha): 75%
Preemergence herbicidal activity ECHCG ([7]; 70 g/Ha): 98%
Preemergence herbicidal activity AMARE ([8]; 70 g/Ha): 99%
Preemergence herbicidal activity SETFA ([9]; 70 g/Ha): 98%
Preemergence herbicidal activity XANST ([10]; 70 g/Ha): 85%
Preemergence herbicidal activity SORBI ([11]; 70 g/Ha): 95%
Postemergence herbicidal activity CHEAL ([12]; 62.5 ppm): 95%
Postemergence herbicidal activity STEME ([13]; 62.5 ppm): 98%
Postemergence herbicidal activity AVEFA ([14]; 62.5 ppm): 99%
Postemergence herbicidal activity POLCO ([15]; 62.5 ppm): 98%
Postemergence herbicidal activity ALOMY ([16]; 62.5 ppm): 95%
Postemergence herbicidal activity ABUTH ([17]; 62.5 ppm): 98%
Postemergence herbicidal activity IPOHE [18]: 80%
Postemergence herbicidal activity AMARE ([19]; 62.5 ppm): 100%
Postemergence herbicidal activity SETFA ([20]; 62.5 ppm): 98%
Postemergence herbicidal activity XANST ([21]; 62.5 ppm): 100%
Postemergence herbicidal activity SORBI ([22]; 62.5 ppm): 100%
Postemergence herbicidal activity VIOTR ([23]; 62.5 ppm): 90%

COc1cc(OC)n2nc(NS(=O)(=O)c3c(OC)cccc3OC)nc2n1 [Compound 2]
Preemergence herbicidal activity DIGSA ([1]; 17.5 g/Ha): 80%
Preemergence herbicidal activity EPHHL ([2]; 17.5 g/Ha): 85%
Preemergence herbicidal activity AVEFA ([3]; 17.5 g/Ha): 75%
Preemergence herbicidal activity ALOMY ([4]; 17.5 g/Ha): 100%
Preemergence herbicidal activity ABUTH ([5]; 17.5 g/Ha): 75%
Preemergence herbicidal activity IPOHE ([6]; 17.5 g/Ha): 85%
Preemergence herbicidal activity ECHCG ([7]; 17.5 g/Ha): 60%
Preemergence herbicidal activity AMARE ([8]; 17.5 g/Ha): 100%
Preemergence herbicidal activity SETFA ([9]; 17.5 g/Ha): 100%
Preemergence herbicidal activity XANST ([10]; 17.5 g/Ha): 80%
Preemergence herbicidal activity SORBI ([11]; 17.5 g/Ha): 95%
Postemergence herbicidal activity CHEAL ([12]; 15.6 ppm): 90%
Postemergence herbicidal activity STEME ([13]; 15.6 ppm): 98%
Postemergence herbicidal activity AVEFA ([14]; 15.6 ppm): 98%
Postemergence herbicidal activity POLCO ([15]; 15.6 ppm): 98%
Postemergence herbicidal activity ALOMY ([16]; 15.6 ppm): 98%
Postemergence herbicidal activity ABUTH ([17]; 15.6 ppm): 95%
Postemergence herbicidal activity AMARE ([19]; 15.6 ppm): 95%
Postemergence herbicidal activity SETFA ([20]; 15.6 ppm): 98%
Postemergence herbicidal activity XANST ([21]; 15.6 ppm): 70%
Postemergence herbicidal activity SORBI ([22]; 15.6 ppm): 100%
Postemergence herbicidal activity VIOTR ([23]; 15.6 ppm): 90%

COC(=O)c1cccc(OC)c1S(=O)(=O)Nc1nc2nc(OC)cc(OC)n2n1 [Compound 7]
Preemergence herbicidal activity DIGSA ([1]; 70 g/Ha): 40%
Preemergence herbicidal activity EPHHL ([2]; 70 g/Ha): 20%
Preemergence herbicidal activity AVEFA ([3]; 70 g/Ha): 70%
Preemergence herbicidal activity ALOMY ([4]; 70 g/Ha): 100%
Preemergence herbicidal activity ABUTH ([5]; 70 g/Ha): 0%
Preemergence herbicidal activity IPOHE ([6]; 70 g/Ha): 10%
Preemergence herbicidal activity ECHCG ([7]; 70 g/Ha): 20%
Preemergence herbicidal activity AMARE ([8]; 70 g/Ha): 100%
Preemergence herbicidal activity SETFA ([9]; 70 g/Ha): 100%
Preemergence herbicidal activity XANST ([10]; 70 g/Ha): 0%
Preemergence herbicidal activity SORBI ([11]; 70 g/Ha): 95%
Postemergence herbicidal activity STEME ([13]; 62.5 ppm): 90%
Postemergence herbicidal activity AVEFA ([14]; 62.5 ppm): 90%
Postemergence herbicidal activity POLCO ([15]; 62.5 ppm): 85%
Postemergence herbicidal activity ALOMY ([16]; 62.5 ppm): 95%
Postemergence herbicidal activity ABUTH ([17]; 62.5 ppm): 70%
Postemergence herbicidal activity IPOHE [18]: 80%
Postemergence herbicidal activity AMARE ([19]; 62.5 ppm): 95%
Postemergence herbicidal activity SETFA ([20]; 62.5 ppm): 95%
Postemergence herbicidal activity XANST ([21]; 62.5 ppm): 40%
Postemergence herbicidal activity SORBI ([22]; 62.5 ppm): 80%
Postemergence herbicidal activity VIOTR ([23]; 62.5 ppm): 80%

COc1cc(OC)n2nc(NS(=O)(=O)c3c(OCCF)cccc3C(F)(F)F)nc2n1 [Compound 3, N-(5,7-dimethoxy[1,2,4]triazolo[1,5-a]pyrimidin-2-yl)-2-(2-fluoroethoxy)-6-(trifluoromethyl)benzenesulfonamide]
Preemergence herbicidal activity DIGSA ([1]; 17.5 g/Ha): 100%
Preemergence herbicidal activity EPHHL ([2]; 17.5 g/Ha): 90%
Preemergence herbicidal activity AVEFA ([3]; 17.5 g/Ha): 95%
Preemergence herbicidal activity ALOMY ([4]; 17.5 g/Ha): 100%
Preemergence herbicidal activity ABUTH ([5]; 17.5 g/Ha): 100%
Preemergence herbicidal activity IPOHE ([6]; 17.5 g/Ha): 98%
Preemergence herbicidal activity ECHCG ([7]; 17.5 g/Ha): 100%
Preemergence herbicidal activity AMARE ([8]; 17.5 g/Ha): 100%
Preemergence herbicidal activity SETFA ([9]; 17.5 g/Ha): 100%
Preemergence herbicidal activity XANST ([10]; 17.5 g/Ha): 100%
Preemergence herbicidal activity SORBI ([11]; 17.5 g/Ha): 100%
Postemergence herbicidal activity CHEAL ([12]; 3.9 ppm): 95%
Postemergence herbicidal activity STEME ([13]; 3.9 ppm): 95%
Postemergence herbicidal activity AVEFA ([14]; 3.9 ppm): 70%
Postemergence herbicidal activity POLCO ([15]; 3.9 ppm): 98%
Postemergence herbicidal activity ALOMY ([16]; 3.9 ppm): 95%
Postemergence herbicidal activity ABUTH ([17]; 3.9 ppm): 80%
Postemergence herbicidal activity AMARE ([19]; 3.9 ppm): 98%
Postemergence herbicidal activity SETFA ([20]; 3.9 ppm): 98%
Postemergence herbicidal activity XANST ([21]; 3.9 ppm): 75%
Postemergence herbicidal activity SORBI ([22]; 3.9 ppm): 70%
Postemergence herbicidal activity VIOTR ([23]; 3.9 ppm): 90%
